Reference: US6653339B2, “Method of treating irritable bowel syndrome” (Pfizer Inc., priority 2001, dated 2003)

Columns and labels:
Assay type in all cases: in vivo, human
irritable bowel syndrome [1] = assay: Clinical Study 3, immediate release darifenacin three times daily vs placebo in irritable bowel syndrome; conditions: for Constipation % of patients reporting AEs corrected for placebo / Dry Mouth % of patients reporting AEs corrected for placebo / Global Rating % Reduction from baseline corrected for placebo / Loose Stool % Reduction from baseline corrected for placebo / Pain Score % Reduction from baseline corrected for placebo / Total AE % of patients reporting AEs corrected for placebo / Urgency % Reduction from baseline corrected for placebo / Vision % of patients reporting AEs corrected for placebo / Constipation % of patients reporting AEs / Dry Mouth % of patients reporting AEs / Global Rating % Reduction from baseline / Loose Stool % Reduction from baseline / Pain Score % Reduction from baseline / Total AE % of patients reporting AEs / Urgency % Reduction from baseline / Vision % of patients reporting AEs: Clinical Study 3, 12 weeks; for Constipation % of patients reporting AEs / Dry Mouth % of patients reporting AEs / Global Rating % Reduction from baseline / Loose Stool % Reduction from baseline / Pain Score % Reduction from baseline / Total AE % of patients reporting AEs / Urgency % Reduction from baseline / Vision % of patients reporting AEs: uncorrected
Text: (§1) The invention may be illustrated by the following clinical studies wherein the treatment of irritable bowel syndrome using darifenacin administered as a once-daily controlled (slow) release formulation in accordance with the prior art is compared with treatment using darifenacin administered as a thrice daily immediate release formulation in accordance with the present invention. Specifically, Clinical Studies 1 and 2 used controlled (slow) release formulations of darifenacin administered once daily (od) and Clinical Study 3 used an immediate release formulation of darifenacin administered three times daily (tid).
(§2) During each clinical study, four efficacy measures of irritable bowel syndrome severity were measured, viz. ‘Pain Score’ (Average daily pain score, a composite of severity and number of days of pain), ‘Loose Stool’ (Number of days on which loose or watery stool occurred), ‘Urgency’ (Number of days on which urgency occured) and so-called ‘Global Rating’ (Patient rating of their condition taking into account all symptoms, 0=no problems). Adverse events (AE) such as constipation, dry mouth and visual abnormalities were also recorded.
Clinical Study 3 was a multi-centre, double-blind, randomised, placebo-controlled parallel group study in which three dose strengths of darifenacin 1.25, 2.5 and 5 mg dosed tid were compared with placebo. Treatment lasted 12 weeks following a 2-week run-in period.
The immediate release dosage forms of darifenacin used in Clinical Study 3 were 1.25 mg, 2.5 mg and 5.0 mg capsules having the following compositions in a Size 3 capsule shell: […]

[2] = Day 6 plasma concentrations of darifenacin, four-way crossover study in healthy male subjects; conditions: 7.5 mg tid immediate release capsule vs 20 mg SR od matrix tablet, healthy volunteers
irritable bowel syndrome [3] = assay: Clinical Study 1, controlled (slow) release darifenacin once daily vs placebo in irritable bowel syndrome; conditions: for Constipation % of patients reporting AEs corrected for placebo / Dry Mouth % of patients reporting AEs corrected for placebo / Global Rating % Reduction from baseline corrected for placebo / Loose Stool % Reduction from baseline corrected for placebo / Pain Score % Reduction from baseline corrected for placebo / Total AE % of patients reporting AEs corrected for placebo / Urgency % Reduction from baseline corrected for placebo / Vision % of patients reporting AEs corrected for placebo / Constipation % of patients reporting AEs / Dry Mouth % of patients reporting AEs / Global Rating % Reduction from baseline / Loose Stool % Reduction from baseline / Pain Score % Reduction from baseline / Total AE % of patients reporting AEs / Urgency % Reduction from baseline / Vision % of patients reporting AEs: Clinical Study 1, 12 weeks; for Constipation % of patients reporting AEs / Dry Mouth % of patients reporting AEs / Global Rating % Reduction from baseline / Loose Stool % Reduction from baseline / Pain Score % Reduction from baseline / Total AE % of patients reporting AEs / Urgency % Reduction from baseline / Vision % of patients reporting AEs: uncorrected
Text: as §1, §2
Clinical Study 1 was a multi-centre, double-blind, randomised, placebo-controlled parallel group study in which three dose strengths of darifenacin of 3.75 mg, 7.5 mg and 15 mg dosed od were compared with placebo. Treatment lasted 12 weeks following a 2-week run-in period.
The controlled (slow) release dosage forms of darifenacin used in Clinical Studies 1 and 2 were 3.75 mg, 7.5 mg, 15.0 mg and 30.0 mg tablets having the following compositions: […]

[4] = immediate release capsule 3 × 1.25 mg (tid)
[5] = immediate release capsule 3 × 2.5 mg (tid)
[6] = immediate release capsule 3 × 5.0 mg (tid)
[7] = controlled release tablet 3.75 mg od
[8] = controlled release tablet 7.5 mg od
[9] = controlled release tablet 15 mg od
[10] = both controlled release od studies (Clinical Studies 1 and 2)

With NC(=O)C(c1ccccc1)(c1ccccc1)[C@@H]1CCN(CCc2ccc3c(c2)CCO3)C1 [darifenacin] the “Constipation % of patients reporting AEs corrected for placebo” value (shortened to “Constipation % … for placebo”) (irritable bowel syndrome [1]; [4]) was 3.4%, the “Dry Mouth % of patients reporting AEs corrected for placebo” value (“Dry Mouth % … for placebo” for short) (irritable bowel syndrome [1]; [4]) was 0.3% and the “Global Rating % Reduction from baseline corrected for placebo” value (“Global Rating % Reduction … for placebo” for short) (irritable bowel syndrome [1]; [4]) was 9%. The “Loose Stool % Reduction from baseline corrected for placebo” value (shortened to “Loose Stool % Reduction … for placebo”) (irritable bowel syndrome [1]; [4]) was 8%, the “Pain Score % Reduction from baseline corrected for placebo” value (from here on “Pain Score % Reduction … for placebo”) (irritable bowel syndrome [1]; [4]) was 10% and the “Total AE % of patients reporting AEs corrected for placebo” value (“Total AE % … for placebo” below) (irritable bowel syndrome [1]; [4]) was −4%. For the same molecule, the “Urgency % Reduction from baseline corrected for placebo” value (shortened to “Urgency % Reduction … for placebo”) (irritable bowel syndrome [1]; [4]) was 11%, the “Vision % of patients reporting AEs corrected for placebo” value (from here on “Vision % … for placebo”) (irritable bowel syndrome [1]; [4]) was −2.2% and the “Constipation % of patients reporting AEs” value (irritable bowel syndrome [1]; [4]) was 6.3%. The “Dry Mouth % of patients reporting AEs” value (irritable bowel syndrome [1]; [4]) was 16%, the “Global Rating % Reduction from baseline” value (irritable bowel syndrome [1]; [4]) was 27% and the “Loose Stool % Reduction from baseline” value (irritable bowel syndrome [1]; [4]) was 16%. For the same molecule, the “Pain Score % Reduction from baseline” value (irritable bowel syndrome [1]; [4]) was 33%, the “Total AE % of patients reporting AEs” value (irritable bowel syndrome [1]; [4]) was 36% and the “Urgency % Reduction from baseline” value (irritable bowel syndrome [1]; [4]) was 36%. The “Vision % of patients reporting AEs” value (irritable bowel syndrome [1]; [4]) was 1.4%, the “Constipation % … for placebo” value (irritable bowel syndrome [1]; [5]) was 5.6% and the “Dry Mouth % … for placebo” value (irritable bowel syndrome [1]; [5]) was 8.8%. For the same molecule, the “Global Rating % Reduction … for placebo” value (irritable bowel syndrome [1]; [5]) was 11%, the “Loose Stool % Reduction … for placebo” value (irritable bowel syndrome [1]; [5]) was 22% and the “Pain Score % Reduction … for placebo” value (irritable bowel syndrome [1]; [5]) was 17%. For the same molecule, the “Total AE % … for placebo” value (irritable bowel syndrome [1]; [5]) was −3%, the “Urgency % Reduction … for placebo” value (irritable bowel syndrome [1]; [5]) was 17% and the “Vision % … for placebo” value (irritable bowel syndrome [1]; [5]) was −0.1%. The “Constipation % of patients reporting AEs” value (irritable bowel syndrome [1]; [5]) was 5.6%, the “Dry Mouth % of patients reporting AEs” value (irritable bowel syndrome [1]; [5]) was 24.5% and the “Global Rating % Reduction from baseline” value (irritable bowel syndrome [1]; [5]) was 29%. For the same molecule, the “Loose Stool % Reduction from baseline” value (irritable bowel syndrome [1]; [5]) was 30%, the “Pain Score % Reduction from baseline” value (irritable bowel syndrome [1]; [5]) was 40% and the “Total AE % of patients reporting AEs” value (irritable bowel syndrome [1]; [5]) was 37%. The “Urgency % Reduction from baseline” value (irritable bowel syndrome [1]; [5]) was 42%, the “Vision % of patients reporting AEs” value (irritable bowel syndrome [1]; [5]) was 3.5% and the “Constipation % … for placebo” value (irritable bowel syndrome [1]; [6]) was 8.4%. The “Dry Mouth % … for placebo” value (irritable bowel syndrome [1]; [6]) was 33.9%, the “Global Rating % Reduction … for placebo” value (irritable bowel syndrome [1]; [6]) was 14% and the “Loose Stool % Reduction … for placebo” value (irritable bowel syndrome [1]; [6]) was 44%. The “Pain Score % Reduction … for placebo” value (irritable bowel syndrome [1]; [6]) was 13%, the “Total AE % … for placebo” value (irritable bowel syndrome [1]; [6]) was 20% and the “Urgency % Reduction … for placebo” value (irritable bowel syndrome [1]; [6]) was 32%. For the same molecule, the “Vision % … for placebo” value (irritable bowel syndrome [1]; [6]) was 4.2%, the “Constipation % of patients reporting AEs” value (irritable bowel syndrome [1]; [6]) was 11.3% and the “Dry Mouth % of patients reporting AEs” value (irritable bowel syndrome [1]; [6]) was 49.6%. The “Global Rating % Reduction from baseline” value (irritable bowel syndrome [1]; [6]) was 32%, the “Loose Stool % Reduction from baseline” value (irritable bowel syndrome [1]; [6]) was 52% and the “Pain Score % Reduction from baseline” value (irritable bowel syndrome [1]; [6]) was 36%. For the same molecule, the “Total AE % of patients reporting AEs” value (irritable bowel syndrome [1]; [6]) was 60%, the “Urgency % Reduction from baseline” value (irritable bowel syndrome [1]; [6]) was 57% and the “Vision % of patients reporting AEs” value (irritable bowel syndrome [1]; [6]) was 7.8%. The “all four efficacy measures (Pain Score, Loose Stool, Urgency and Global Rating)” value (irritable bowel syndrome [1]; immediate release tid study, all three doses) was “marked improvements”, the “darifenacin plasma concentration (FIG. 1)” value [2] was “periodic ‘peaking’ of the darifenacin plasma concentration above that of the controlled release curve” and the “Constipation % … for placebo” value (irritable bowel syndrome [3]; [7]) was 1.4%. For the same molecule, the “Dry Mouth % … for placebo” value (irritable bowel syndrome [3]; [7]) was 2.5%, the “Global Rating % Reduction … for placebo” value (irritable bowel syndrome [3]; [7]) was −2% and the “Loose Stool % Reduction … for placebo” value (irritable bowel syndrome [3]; [7]) was 4%. The “Pain Score % Reduction … for placebo” value (irritable bowel syndrome [3]; [7]) was −3%, the “Total AE % … for placebo” value (irritable bowel syndrome [3]; [7]) was 2% and the “Urgency % Reduction … for placebo” value (irritable bowel syndrome [3]; [7]) was 18%. The “Vision % … for placebo” value (irritable bowel syndrome [3]; [7]) was 5.4%, the “Constipation % of patients reporting AEs” value (irritable bowel syndrome [3]; [7]) was 7.2% and the “Dry Mouth % of patients reporting AEs” value (irritable bowel syndrome [3]; [7]) was 10.2%. For the same molecule, the “Global Rating % Reduction from baseline” value (irritable bowel syndrome [3]; [7]) was 27%, the “Loose Stool % Reduction from baseline” value (irritable bowel syndrome [3]; [7]) was 37% and the “Pain Score % Reduction from baseline” value (irritable bowel syndrome [3]; [7]) was 35%. For the same molecule, the “Total AE % of patients reporting AEs” value (irritable bowel syndrome [3]; [7]) was 27%, the “Urgency % Reduction from baseline” value (irritable bowel syndrome [3]; [7]) was 41% and the “Vision % of patients reporting AEs” value (irritable bowel syndrome [3]; [7]) was 5.4%. For the same molecule, the “Constipation % … for placebo” value (irritable bowel syndrome [3]; [8]) was 4.7%, the “Dry Mouth % … for placebo” value (irritable bowel syndrome [3]; [8]) was 6.5% and the “Global Rating % Reduction … for placebo” value (irritable bowel syndrome [3]; [8]) was 0%. For the same molecule, the “Loose Stool % Reduction … for placebo” value (irritable bowel syndrome [3]; [8]) was 4%, the “Pain Score % Reduction … for placebo” value (irritable bowel syndrome [3]; [8]) was 5% and the “Total AE % … for placebo” value (irritable bowel syndrome [3]; [8]) was 3%. The “Urgency % Reduction … for placebo” value (irritable bowel syndrome [3]; [8]) was 17%, the “Vision % … for placebo” value (irritable bowel syndrome [3]; [8]) was 4.3% and the “Constipation % of patients reporting AEs” value (irritable bowel syndrome [3]; [8]) was 10.5%. For the same molecule, the “Dry Mouth % of patients reporting AEs” value (irritable bowel syndrome [3]; [8]) was 14.2%, the “Global Rating % Reduction from baseline” value (irritable bowel syndrome [3]; [8]) was 29% and the “Loose Stool % Reduction from baseline” value (irritable bowel syndrome [3]; [8]) was 37%. The “Pain Score % Reduction from baseline” value (irritable bowel syndrome [3]; [8]) was 43%, the “Total AE % of patients reporting AEs” value (irritable bowel syndrome [3]; [8]) was 28% and the “Urgency % Reduction from baseline” value (irritable bowel syndrome [3]; [8]) was 40%. The “Vision % of patients reporting AEs” value (irritable bowel syndrome [3]; [8]) was 4.3%, the “Constipation % … for placebo” value (irritable bowel syndrome [3]; [9]) was 9.4% and the “Dry Mouth % … for placebo” value (irritable bowel syndrome [3]; [9]) was 20.8%. For the same molecule, the “Global Rating % Reduction … for placebo” value (irritable bowel syndrome [3]; [9]) was 2%, the “Loose Stool % Reduction … for placebo” value (irritable bowel syndrome [3]; [9]) was 14% and the “Pain Score % Reduction … for placebo” value (irritable bowel syndrome [3]; [9]) was 1%. For the same molecule, the “Total AE % … for placebo” value (irritable bowel syndrome [3]; [9]) was 15%, the “Urgency % Reduction … for placebo” value (irritable bowel syndrome [3]; [9]) was 27% and the “Vision % … for placebo” value (irritable bowel syndrome [3]; [9]) was 3.3%. For the same molecule, the “Constipation % of patients reporting AEs” value (irritable bowel syndrome [3]; [9]) was 15.2%, the “Dry Mouth % of patients reporting AEs” value (irritable bowel syndrome [3]; [9]) was 28.5% and the “Global Rating % Reduction from baseline” value (irritable bowel syndrome [3]; [9]) was 31%. For the same molecule, the “Loose Stool % Reduction from baseline” value (irritable bowel syndrome [3]; [9]) was 47%, the “Pain Score % Reduction from baseline” value (irritable bowel syndrome [3]; [9]) was 39% and the “Total AE % of patients reporting AEs” value (irritable bowel syndrome [3]; [9]) was 40%. The “Urgency % Reduction from baseline” value (irritable bowel syndrome [3]; [9]) was 50%, the “Vision % of patients reporting AEs” value (irritable bowel syndrome [3]; [9]) was 3.3% and the “key measures of Pain Score and Global Rating” value (irritable bowel syndrome [3]; [10]) was “no effects were seen”. The “number of adverse effects” value (irritable bowel syndrome [3]; [10]) was “marked increase with dose” and the “efficacy measures of Loose Stool and Urgency” value (irritable bowel syndrome [3]; both controlled release od studies (Clinical Studies 1 and 2), higher doses) was “improvements”.
